Earlier results, collected in patent US20190289805A1, “CULTURING METHOD FOR CULTURED LEGUMINOUS ROOTS HAVING INCREASED COUMESTROL CONTENT” (Amorepacific Corporation, priority 2016, published 2019).

System: mouse uterus
Conditions: oral administration

In the case of `O=c1oc2cc(O)ccc2c2oc3cc(O)ccc3c12` [coumestrol], the estrogen effect (mature mice) is given as “has no estrogen effect” and the “estrogen effect (change in weight of uterus)” value (young female mice) is given as “exhibits an effective estrogen effect”.
